# Source: patent US6849645B2, “Method of increased bioavailability of nutrients and pharmaceutical preparations with tetrahydropiperine and its analogues and derivatives” (priority 2000, dated 2005)
# “Also recorded” adds a separate entry of the source.
# What was measured:
# [1] = Franz diffusion cell, in vitro transdermal permeation of Forskolin with or without tetrahydropiperine; format: in vitro ADME, rat; details: for Increase in release (% of Forskolin): with THP vs control
# Method: In vitro permeation studies of Forskholin, a diterpenoid compound which has various therapeutic effects (Bronchodilation—used in Asthma, prevents platelet aggregation, anti hypertensive, anti glaucoma and anti-inflammatory) was carried out. Fabricated Franz diffusion cells of capacity 67 and 69 ml were used for the study. Freshly excised rat abdominal skin was used for the permeation studies.
# Solutions Used in the Study • a) 2.5% Forskolin in methanol. • b) 0.05% Tetrahydropiperine in 2.5% Forskolin in methanol. • c) 0.1% Tetrahydropiperine in 2.5% Forskolin in methanol. Procedure
# Freshly excised rat abdominal […] was mounted on the Franz diffusion Cell, the outer layer of the skin facing the donor compartment. The receptor fluid was maintained at 35° C. using a thermostatic magnetic stirrer.
# The study was conducted by replacing the medium in the receptor compartment with methanol instead of phosphate buffer. In both the receptor and donor compartment methanol was used as the medium in the permeation studies.
# (§1) In the donor compartment 2 ml methanol containing 50 mg of Forskolin and tetrahydropiperine (5% of Forskolin conc.) was taken. Receptor compartment consisted of 69 ml of methanol maintained at 35° C. Permeation study was carried out for a period of 1 hr. Samples were withdrawn at 15, 30 and 60 minutes intervals and the amount of Forskholin present was analyzed by HPLC.
# as §1, with “Forskholin” for “Forskolin and tetrahydropiperine (5% of Forskolin conc.)”, “65” for “69”, “hour.” for “hr.”
# [2] = Primary skin irritation potential, Draize's method; format: in vivo, New Zealand White rabbits
# Method: The study was designed to determine the primary skin irritation potential on New Zealand White rabbits following the guidelines provided by Gaitonde Committee, CIB, New Delhi, India
# New Zealand White, healthy, adult male and female rabbits, each group comprising of 3 randomly selected animals of each sex.
# 0.5 ml of the test substance was applied to dehaired intact and abraded skin sites of each test animal. Care was taken to note that the abrasions penetrated the Stratum corneum, but not the dermis. A gauze patch was secured over each treated area using tape. The patch and unabsorbed test substance were removed after 24 hours. Each site of application was carefully observed and the reaction evaluated according to Draize's method at 24 and 72 hours.
# [3] = tested on: tobacco cut worm, Spodoptera litura F.; assay: whole plant or invertebrate; details: 48 hours
# Method: The tetrahydropiperine was tested against tobacco cut worm, Spodoptera litura F. to determine its possible increased kill rate when used with Fenvalerate—a synthetic pyrethroid.
# • a. Preparation of test solution—0.5 g of the test product was dissolved in 1 ml of Ethanol and made up to 100 ml in standard volumetric flask using suitable emulsifier. This solution contains 5000 ppm a.i. (0.5 percent). Further, serial dilution was made to get 0.25, 0.125 and 0.0625% of the test product. To each of these test solutions, Fenvalerate was added to get 250 ppm of Fenvalerate a.i. in the final volume. For comparison 0.5 percent of Tetrahydropiperine, Ethanol 1.0 percent solution and 250 ppm a.i. of Fenvalerate was used. • b. Bioassay—Laboratory reared 7 day old larvae of tobacco cut worm, Spodoptera litura were used in the experiment. After a series of preliminary tests the concentrations chosen for the experiment were 0.5, 0.25, 0.125 and 0.0625 percent tetrahydropiperine. Fresh castor leaves were dipped for 30 seconds in above concentrations of test and standard compounds and blank solutions. After proper drying, the treated leaves were transferred to plastic containers. To each container 5 larvae were released. This was repeated four times so as to have 20 larvae for each concentration. Larvae in control set were fed with leaves dipped in water. Observations were recorded for larval mortality after 48 hours of exposure. Results
# [4] = In vitro DPPH radical scavenging method (THC with or without THP); format: biochemical
# Method: The bioenhancing potential of THP on the free-radical scavenging properties of topically applied THC was evaluated. In this in vitro DPPH radical scavenging method, the ability of an anti-oxidant to bind and inactivate the 1,1 diphenyl-2-picrylhydrazyl radical, or DPPH, was measured. DPPH is considered an example of a very stable free radical. The control sample contained 0.01% of THC while active samples contained 0.01% of THC with THP concentrations ranging from 0.1%-0.0001%. Additionally, controls containing various concentrations of THP alone were also tested for DPPH binding.
# Earthworms = assay: Albendazole induced anthelmintic activity on earthworms (paralysis and death); format: in vivo, earthworm
# Method: An experiment to see how tetrahydropiperine enhances the skin permeability of anthelmintic drugs such as albendazole on intestinal worms was conducted. However, as a preliminary study towards this, tests on earthworms were conducted.
# Earthworms were obtained from the Al Ameen College of Pharmacy, Bangalore. Albendazole (Zentel) was obtained from Smith Kline Beecham Pharmaceuticals, Bangalore. The aqueous test solution contained tetrahydropiperine (Tetraperine™, A proprietary product of Sabinsa Corporation, USA) of 0.1% and 0.2% w/v suspended in 0.25% w/v sodium carboxy methyl cellulose.
# 1. Effect of Albendazole: Earth worms of similar length and weight were divided into three groups of six worms each. […] The time of onset of paralysis was noted and the death of the worms were observed and recorded as above.
# [5] = Solubility (specification of THP); format: physicochemical
# [6] = Albendazole 0.2% + THP 0.1% vs Albendazole 0.2%
# [7] = Albendazole 0.2% + THP 0.1% w/v
# [8] = Albendazole 0.2% + THP 0.2% vs Albendazole 0.2%
# [9] = Albendazole 0.2% + THP 0.2% w/v
smiles,measurement,setting,value
"O=C(CCCCc1ccc2c(c1)OCO2)N1CCCCC1 [Tetrahydropiperine, 1-[5-(1,3-Benzodioxol-5 yl)-1-oxo-pentanoyl]-Piperidine]",permeation of Forskolin,[1]; Tetrahydropiperine 5% of Forskolin concentration,enhanced
same,permeation of Forskolin,[1]; tetrahydropiperine 2% of Forskolin concentration,enhanced permeation was not observed
same,Increase in release (% of Forskolin),[1]; 15 min,28.12%
same,Increase in release (% of Forskolin),[1]; 30 min,39.25%
same,Increase in release (% of Forskolin),[1]; 60 min,5.09%
same,"skin reaction (erythema, edema, irritation)","[2]; 0.5 ml on intact and abraded skin sites, patch 24 hours, evaluated at 24 and 72 hours",No erythema or edema; also recorded: did not cause any irritation
same,primary skin irritation score,"[2]; intact and abraded skin, Draize's method, 24 and 72 hours",zero
same,PERCENT MORTALITY (Mean of 4 replications),[3]; Tetrahydropiperine 0.0625% + 250 ppm a.i. Fenvalerate,50%
same,PERCENT MORTALITY (Mean of 4 replications),"[3]; Tetrahydropiperine 0.0625% + 250 ppm a.i. Fenvalerate, listed as tetrahydropiperine",did not enhance the activity
same,PERCENT MORTALITY (Mean of 4 replications),[3]; Tetrahydropiperine 0.125% + 250 ppm a.i. Fenvalerate,65%
same,PERCENT MORTALITY (Mean of 4 replications),[3]; Tetrahydropiperine 0.5% + 250 ppm a.i. Fenvalerate,100%
same,PERCENT MORTALITY (Mean of 4 replications),[3]; Tetrahydropiperine 0.5% alone,0%
same,PERCENT MORTALITY (Mean of 4 replications),"[3]; Tetrahydropiperine 0.5% alone, listed as tetrahydropiperine",did not show any activity
same,PERCENT MORTALITY (Mean of 4 replications),[3]; Tetrahydropiperine […] + 250 ppm a.i. Fenvalerate,85%
same,enhancement of the antioxidant properties of THC as compared to THC alone,[4]; 0.01% THC with THP 0.1%-0.0001%,up to 30%
same,THC bioenhancing activity,[4]; 0.01% THC with THP at highest dilution of 0.0001%,still displayed some beneficial THC bioenhancing activity
same,anti-oxidant properties (DPPH binding),"[4]; THP alone, various concentrations",did not show any significant anti-oxidant properties
same,% Reduction in time for Death,Earthworms; [6],11.03%
same,% Reduction in time for Paralysis,Earthworms; [6],12.81%
same,"Time taken in minutes (Mean ± SEM), Death",Earthworms; [7],98.16 ± 5.19 min
same,"Time taken in minutes (Mean ± SEM), Paralysis",Earthworms; [7],86.31 ± 4.3 min
same,% Reduction in time for Death,Earthworms; [8],32.32%
same,% Reduction in time for Paralysis,Earthworms; [8],37.36%
same,"Time taken in minutes (Mean ± SEM), Death",Earthworms; [9],74.64 ± 2.98 min
same,"Time taken in minutes (Mean ± SEM), Paralysis",Earthworms; [9],62.01 ± 3.33 min
same,change in time taken for paralysis and death,Earthworms; Albendazole 0.2% co-administered with tetrahydropiperine 0.2%,showed a reduction
same,% Reduction in time for Death,Earthworms; THP 0.1% alone,Nil
same,% Reduction in time for Paralysis,Earthworms; THP 0.1% alone,Nil
same,change in time of paralysis and death compared with standard concentration,"Earthworms; Tetrahydropiperine 0.1% with albendazole 0.2%, unpaired t test",no change
same,Solubility,[5]; chloroform,Soluble
same,Solubility,[5]; methanol,Soluble
same,Solubility,[5]; water,insoluble
